Patent US5340818A, “Methods and compositions for inhibiting tumor cell growth” (priority 1993, dated 1994)
“And” between values parts separate entries of the source, which are not always exact repeats. Identical values can stand only once. Like-named read-outs stand apart in the source and are kept apart here.

Key:
Type in all cases: cell-based, human
[1] = tested on: DNA synthesis in HL-60 cells; assay: Inhibition of [3H-methyl]dThd incorporation into DNA of HL-60 cells; conditions: for inhibition at 30 µg/mL: Homo sapiens, HL-60, at 0.03 mg/mL, read-out: % Inhibition of Precursor Incorporation, DNA; for inhibition of DNA synthesis, in words: HL-60, 0.03 mg/ml; for % Inhibition of Precursor Incorporation, DNA: at 0.03 mg/mL
Description: (§1) For the precursor incorporation studies, each compound (in 0.3% dimethylsulfoxide) was preincubated with HL-60 cells (a human promyelocytic leukemic cell line) 2.2×10^6 /ml, for 15 min prior to the addition of the labeled precursor (obtained from ICN Radiochemicals, Irvine, Calif.) and then incubated for 30 min. The precursors used for incorporation into DNA, RNA and protein were [^3 H-methyl]dThd (1 μCi, 0.15 nmole/ml), [5-^3 H]Cyd (5 μCi, 0.23 nmol/ml), and [2,3,4,5-^3 H]L-Leu (0.5 μCi, 0.004 nmol/ml), respectively. Incorporation of radioactivity in the absence of a plant compound and in the presence of dimethylsulfoxide was used as a control.
Human promyelocytic cells (HL-60) were incubated with [^3 H-methyl]dTHDin the presence and absence of a plant alkaloid.

[2] = tested on: RNA synthesis in HL-60 cells; assay: Inhibition of [5-3H]Cyd incorporation into RNA of HL-60 cells; conditions: for inhibition at 30 µg/mL: Homo sapiens, HL-60, 0.5 h
Description: as §1, with “control. The control values for incorporation into DNA, RNA and protein were 8,500, 5,600 and 1,700 cpm/10^6 cells, respectively. The incubation conditions and the procedures for isolating DNA, RNA and protein fractions have been previously described (Chou, T. -C., et al., Cancer Res., 43:3074-3079 (1983)) .” for “control.”
(§2) HL-60 cells were incubated with [5-^3 H]Cyd or [2,3,4,5-^3 H]L-Leu in the presence and absence of alkaloids (0.03 mg/ml) in order to find the effects of the alkaloid on the incorporation of labeled precursors into RNA or protein. […] Over 90% of RNA and protein biosynthesis were inhibited by compounds 11, 16, 17, 22, 28, 29and 30 (Table 1). […] In most cases, the amount required to inhibit precursor incorporation into DNA was less than that to inhibit precursor incorporation into RNA or protein (i.e. DNA synthesis is inhibited most potently).

[3] = tested on: protein synthesis in HL-60 cells; assay: Inhibition of [2,3,4,5-3H]L-Leu incorporation into protein of HL-60 cells; conditions: for inhibition at 30 µg/mL: Homo sapiens; for % Inhibition of Precursor Incorporation, Protein: at 0.03 mg/mL
Description: as §1, with “control. The control values for incorporation into DNA, RNA and protein were 8,500, 5,600 and 1,700 cpm/10^6 cells, respectively. The incubation conditions and the procedures for isolating DNA, RNA and protein fractions have been previously described (Chou, T. -C., et al., Cancer Res., 43:3074-3079 (1983)) .” for “control.”
as §2

HL-60 cells = assay: HL-60 cell growth inhibition, 72 h; conditions: HL-60, 72 h; for IC50: read-out: Cell Growth Inhibition, IC50
Description: For growth inhibition studies, HL-60 cells (1.5×10^5 /ml) were grown in RPMI 1640 media (GIBCO, Grand Island, N.Y.) at 37° C. in humidified 5% CO2 for 72 h. Viable cells were determined using trypan blue exclusion and counted in a hemocytometer. The fractional inhibition for each compound concentration (0.0025-0.05 mg/ml in 0.1% dimethylsulfoxide) was analyzed with the median-effect plot using a computer program (Chou, T. -C and P. Talalay, Adv. Enzyme Regul., 22:27-55 (1984); Chou, J. and T. -C. thou, Dose-Effect analysis with microcomputers: Quantitation of ED50, LD50, synergism, antagonism, low-dose risk, receptor ligand binding and enzyme kinetics. A computer software disk for Apple II series or IBM-PC and manual. Elsevier Science Publishers, Elsevier-BioSoft, Cambridge, United Kingdom (1986)). The median-effect concentration (IC50) was determined automatically for three to five dose-effect levels. Cell growth in the absence of plant compound and in the presence of dimethylsulfoxide was used as a control. Dimethylsulfoxide alone inhibited cell growth 3.9%±1.5% during the 72 h incubation period. Those data with negative values represent activations.

[4] = at 0.03 mg/mL, read-out: % Inhibition of Precursor Incorporation, RNA
[5] = HL-60, at 0.03 mg/mL, read-out: % Inhibition of Precursor Incorporation, Protein
[6] = read-out: % Inhibition of Precursor Incorporation, RNA, at 0.03 mg/mL
[7] = HL-60, read-out: % Inhibition of Precursor Incorporation, Protein, at 0.03 mg/mL

| Molecule | IC50 (HL-60 cells; Homo sapiens) | Cell Growth Inhibition, IC50 (HL-60 cells) [µg/mL] | IC50 (HL-60 cells) [µM] | inhibition at 30 µg/mL [1] [%] | inhibition at 30 µg/mL [2, 4] [%] | inhibition at 30 µg/mL [3, 5] [%] | cell growth inhibition, in words (HL-60 cells) | inhibition of DNA synthesis, in words [1] | % Inhibition of Precursor Incorporation, DNA [1] [%] | % Inhibition of Precursor Incorporation, RNA ([2]; at 0.03 mg/mL) [%] | % Inhibition of Precursor Incorporation, Protein [3] [%] | inhibition at 30 µg/mL [2, 6] [%] | inhibition at 30 µg/mL [3, 7] [%] |
| --- | --- | --- | --- | --- | --- | --- | --- | --- | --- | --- | --- | --- | --- |
| COc1cc(O)c2c(=O)c3ccc(O)c(OC)c3n(C)c2c1CC=C(C)C [Compound 29, Grandisinine] | 6 µg/mL and 16.9 µM |  |  | 98.5 | 96.5 | 94.6 | significant activity against leukemic cells in vitro |  |  |  |  |  |  |
| COc1ccc2c(=O)c3c(O)cc(OC)c(CC=C(C)C)c3n(C)c2c1OC [Compound 30, Balyumine-B] | 1.7 µg/mL and 4.4 µM |  |  | 86.9 | 92.5 | 87 |  |  |  |  |  |  |  |
| CC1(C)C=Cc2c(cc(O)c3c(=O)c4ccccc4[nH]c23)O1 [Compound 32, des-N-methyl-nor-acronycine] | 9.1 µg/mL and 31 µM |  |  | 69.2 | 77.5 | 85.9 | only showed moderate cell growth inhibitory activity | did not show good activity |  |  |  |  |  |
| COc1cc2c(c3[nH]c4ccccc4c(=O)c13)C=CC(C)(C)O2 [Compound 33, des-N-methyl acronycine] | 5.4 µg/mL and 17.6 µM |  |  | 93.8 | 67.3 | 86.4 | significantly active | markedly increased |  |  |  |  |  |
| Cn1c2ccccc2c(=O)c2c(O)cc3c(c21)C=CC(C)(C)O3 [Compound 35, Noracronycine] | > 40 µg/mL and > 130 µM |  |  | 25.5 | 94 | 4.7 | only showed moderate cell growth inhibitory activity |  |  |  |  |  |  |
| Cn1c2c(O)cccc2c(=O)c2c(O)cc3c(c21)CCC(C)(C)O3 [Compound 38, 1,2-Dihydro-11-hydroxy-nor acronycine] | 5.5 µg/mL and 16.9 µM |  |  | 98.8 | 76.6 | 92.2 | only half as potent as their parent compounds | same potency as their parent compounds |  |  |  |  |  |
| COc1cccc2c(=O)c3c(O)cc4c(c3n(C)c12)C=CC(C)(C)O4 [Compound 39, 11-methoxy-noracronycine] |  | 5.8 | 17.2 |  |  |  |  |  | 98.9 | 39.9 | 36.2 |  |  |
| CC(C)=CCc1c2c(c3[nH]c4c(O)cccc4c(=O)c3c1O)C=CC(C)(C)O2 [Compound 40, Atalaphyllinine] | 1.2 µg/mL and 3.2 µM |  |  | 98.8 |  |  | comparable activity | greater activity |  |  |  | 24.4 | 41.8 |
| CC(C)=CCc1c2c(c3c(c1O)c(=O)c1ccccc1n3C)C=CC(C)(C)O2 [Compound 41, N-Methylseverifoline] | > 40 µg/mL and > 107 µM |  |  | 21.3 | -17.9 | 13.2 | only showed moderate cell growth inhibitory activity | no effect on the inhibitory activity |  |  |  |  |  |
| COc1c(O)ccc2c(=O)c3c(O)cc4c(c3n(C)c12)C=CC(C)(C)O4 [Compound 42, Citracridone-I] | 2.9 µg/mL and 8.2 µM |  |  | 98.5 | 96.9 | 90.5 |  |  |  |  |  |  |  |
| COc1c(O)ccc2c(=O)c3c(O)cc4c(c3n(C)c12)CCC(C)(C)O4 [Compound 43, 1,2-dihydrocitracridone-I] | 6.4 µg/mL and 18 µM |  |  | 94.9 | 68 | 81.9 | only half as potent as their parent compounds | same potency as their parent compounds |  |  |  |  |  |
| COc1ccc2c(=O)c3c(O)cc4c(c3n(C)c2c1OC)C=CC(C)(C)O4 [Compound 44, Citracridone-II] | > 40 µg/mL and > 109 µM |  |  | 77.6 | 96.4 | 62.7 |  |  |  |  |  |  |  |
| CC(C)=CCc1c2c(c3c(c1O)c(=O)c1cccc(O)c1n3C)C=CC(C)(C)O2 [Compound 46, 11-Hydroxy-N-methyl severifoline] | 5.9 µg/mL and 15.1 µM |  |  | 97.9 |  |  |  | significant activity |  |  |  | 16.7 | 4.22 |

Further lines, with some results ahead:

| IC50 (HL-60 cells; Homo sapiens) | Cell Growth Inhibition, IC50 (HL-60 cells) [µg/mL] | IC50 (HL-60 cells) [µM] | Molecule | inhibition at 30 µg/mL [1] [%] | inhibition at 30 µg/mL [2, 4] [%] | inhibition at 30 µg/mL [3, 5] [%] | cell growth inhibition, in words (HL-60 cells) | inhibition of DNA synthesis, in words [1] | % Inhibition of Precursor Incorporation, DNA [1] [%] | % Inhibition of Precursor Incorporation, RNA ([2]; at 0.03 mg/mL) [%] | % Inhibition of Precursor Incorporation, Protein [3] [%] | inhibition at 30 µg/mL [2, 6] [%] | inhibition at 30 µg/mL [3, 7] [%] |
| --- | --- | --- | --- | --- | --- | --- | --- | --- | --- | --- | --- | --- | --- |
| 5.9 µg/mL and 15.5 µM |  |  | COc1ccc2c(=O)c3c(OC)cc4c(c3n(C)c2c1OC)C=CC(C)(C)O4 [Compound 45, 6-O-Methylcitracridone-II] | 98.7 | 37.8 | 49.8 | significantly active |  |  |  |  |  |  |
| 8.8 µg/mL and 20.3 µM |  |  | CC(=O)Oc1cccc2c(=O)c3c(O)c(CC=C(C)C)c4c(c3n(C)c12)C=CC(C)(C)O4 [Compound 47, 11-O-Acetyl-N-methyl severifoline] | 58.4 | 16.2 | 36.2 |  |  |  |  |  |  |  |
| 3.1 µg/mL and 8.8 µM |  |  | COc1c2c(c(O)c3c(=O)c4cccc(O)c4n(C)c13)C=CC(C)(C)O2 [Compound 48, Pyranofoline] | 98.8 | 97.2 | 96.4 | better activity than that of acronycine | inhibited DNA synthesis significantly |  |  |  |  |  |
|  | > 40 | > 66.4 | CC(C)=CCc1c(O)c(C2CC(C)(C)Oc3cc(O)c4c(=O)c5ccccc5[nH]c4c32)c(O)c2c(=O)c3ccccc3n(C)c12 (centres unmarked) [Compound 52, Glycobismine-A] |  |  |  |  | not active | -27.8 | -57.4 | -13.2 |  |  |
|  | > 40 | > 124 | Furofoline-II [Compound 51] |  |  |  |  | not active | 13.1 | -46.3 | 19.5 |  |  |
|  | 18.7 | 47.1 | Methoxymethyl-pyranofoline [Compound 49] |  |  |  |  | inhibited DNA synthesis significantly | 85.3 | 70.1 | 87.3 |  |  |
